Measurements from patent US20070270349A1, “Glutathione Derivatives and Their Uses for the Treatment of Viral Diseases” (priority 2003, published 2007).
pEC50: −log10 of the molar value.

How the values were obtained:
erythrocytes (RBCs) = test: Entry into erythrocytes, oil-stop method; assay type: in vitro ADME; conditions: calculated in the first 30 minutes, 37° C., 10% hematocrit
Procedure: The entry of GSH and GSH-C4 into erythrocytes (RBCs) at 37° C. in microcentrifugal test-tubes was measured using the oil-stop method. […] A Manual of Biochemical Methods, 3rd edn. Grune & Stratton, New York).

HSV-1 = HSV-1 replication in Vero cells, plaque assay; assay type: cell-based, human herpes simplex virus type 1
Procedure: (§1) The Senday virus (SV) belonging to the Paramyxovirus family is a virus with non-segmented single stranded RNA of negative polarity. This virus was reproduced by inoculation in the allantoic liquid of embryonated chicken eggs. The monolayers of MDCK cells were infected with SV [3 hemagglutinating units (HAU)×10^5 cells]. After incubation for 1 hour at 37° C. (adsorption period), the unadsorbed viruses were removed, the monolayers were washed and then incubated in a complete medium containing 2% of bovine fetal serum. The production of viruses by infected cells was determined in the cellular supernatants at different intervals of time from infection (p.i.), measuring the hemagglutinating activity towards type 0 Rh+ human erythrocytes (HAU), according to standard procedures. […] Monkey kidney cells (VERO) were grown in RPMI, to which 5% of serum was added. The human herpes simplex virus type 1 (HSV-1), clinically isolated (TV1), was grown and titered in the Vero cells as described in Palamara, A. T., Perno, C. F., Ciriolo, M. R., Dini, L., Balestra, E., D'Agostini, C. et al. (1995). […] Antiviral Research 27, 237-253.
(§2) To obtain the viral infection, monolayers of Vero cells were infected with HSV-1 at a MOI (multiplicity of infection) of 0.03 PFU/cell. After incubation for 1 hour at 37° C. (adsorption period) the unadsorbed viruses were removed, the monolayers were washed and then incubated with culture medium containing 2% bovine fetal serum. GSH-C4 was added in identical doses to the ones indicated above immediately after the adsorption period and was maintained in the culture medium until completion of the experiments. Supernatants from infected cells were collected at different times after contact with the virus and tested for the ability to form plaques in Vero cells, using a standard titration method. Similar experiments were also conducted on HSV-1 TK-D305.
Vero cells were infected for 1 hour with HSV-1 at a MOI of 0.03 PFU/cell. After repeated washings, GSH-C4 was added at different concentrations (range 0-10 mM) to the cell cultures. Replication of the viruses was tested in the Vero cells 48 h after infection using the plaque technique.

Sendai virus = Sendai virus replication in MDCK cells, hemagglutinating activity in supernatant; assay type: cell-based; conditions: for pEC50 / inhibition at 5000 µM: Respirovirus muris; for pEC50: 48 h, MDCK cells, read-out: 50% of inhibition of viral reproduction (EC50); for inhibition at 5000 µM: MDCK, 5 mM
Procedure: To measure the behavior of GSH-C4 derivatives in infected cells, Madin Darby canine kidney cells (MDCK) were grown in RPMI 1640 to which 5% of heat-decomplemented bovine fetal serum (Flow Laboratories, Italy) was added.
as §1
MDCK cells were infected for 1 hour with 3 hemagglutinating units (HAU)×10^5 cells. The cells were washed and then cultivated in the presence of different concentrations of GSH-C4 (range 0-7.5 mM) for 2 days. Production of the virus was assayed at 24 hours (panel A) and 48 hours (panel B) measuring the hemagglutinating activity on type 0 Rh+ human erythrocytes.

uninfected Vero cells = test: Toxic effects in uninfected Vero cells; assay type: cell-based, Monkey
HSV-1 TK− = test: HSV-1 TK- (Δ305) replication in Vero cells, plaque forming units; assay type: cell-based, human herpes simplex virus type 1
Procedure: as §2
Vero cells were infected for 1 h at 37° C. with the strain Δ305 and then kept in culture in the presence of different concentrations of GSH-C4. The production of viruses was measured 24, 48 and 72 h after infection by assay of the plaque forming units.

[1] = tested on: glutathione S-transferase (E.C.2.5.1.18.); test: Glutathione S-transferase activity in hemolyzed human blood with GSH or GSH-C4 as substrate; assay type: biochemical; conditions: 2 mM substrate
Procedure: (§3) Enzymatic determinations of the activity of glutathione peroxidase (E.C.1.11.1.9.) and glutathione S-transferase (E.C.2.5.1.18.) in hemolyzed human blood in the presence of GSH and of its derivative GSH-C4 were carried out according to the methods of Beutler (Beutler, E., 1984, Red Cell Metabolism. A Manual of Biochemical Methods, 3rd edn. Grune & Stratton, New York). GSH and GSH-C4 were then oxidized by incubation at ambient temperature in the presence of 35% (v/v) H2O2 to respectively obtain GSSG and C4-GSSG-C4.
(§4) The enzymatic activities of glutathione peroxydase and glutathione S-transferase were measured in hemolyzed human blood in the presence of GSH-C4 or GSH 2 mM as substrates. […] Moreover, GSH and GSH-C4 were chemically oxidized in the corresponding disulphide forms (GSSG and C4-GSSG-C4).

[2] = target: T1, glutathione peroxidase (E.C.1.11.1.9.) (Homo sapiens, UniProt P07203); test: Glutathione peroxidase activity in hemolyzed human blood with GSH or GSH-C4 as substrate; assay type: biochemical; conditions: 2 mM substrate
T1 construct: measured in hemolyzed human blood; from tissue; host or cells: hemolyzed human blood
T1 sequence (P07203 1-203): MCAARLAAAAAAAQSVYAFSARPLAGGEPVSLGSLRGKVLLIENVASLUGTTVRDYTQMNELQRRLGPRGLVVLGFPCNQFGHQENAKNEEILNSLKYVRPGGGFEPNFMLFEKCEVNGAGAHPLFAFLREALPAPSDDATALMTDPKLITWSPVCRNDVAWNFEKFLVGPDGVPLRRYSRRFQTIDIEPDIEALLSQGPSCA
Procedure: as §3, §4

[3] = tested on: uninfected Madin Darby canine kidney cells (MDKC); test: Toxicity on confluent monolayers of uninfected MDCK cells (morphology, Trypan blue vitality, cell count); assay type: cell-based; conditions: for toxic effect or change in cell morphology: uninfected MDCK monolayers, concentrations used in the experiments
Procedure: The toxicity was measured on the basis of microscopic examinations of cellular morphology, of measurement of cellular vitality after staining with Trypan blue and of the cell count. All compounds were diluted in RPMI, the final pH of the solution was approximately 7-7.3.

N[C@@H](CCC(=O)N[C@@H](CS)C(=O)NCC(=O)O)C(=O)O [GSH, γ-glutamylcysteinylglycine, reference compound]
entry speed into erythrocytes (erythrocytes (RBCs)): 2.33 nmol/min/ml RBCs | complete inhibition of the virus (HSV-1; 10 mM): does not induce complete inhibition of the virus | reduction in virus replication (HSV-1; 10 mM): around 2.5 log | pEC50 (Sendai virus): 2.12

CCCC(=O)N[C@@H](CCC(=O)N[C@@H](CS)C(=O)NCC(=O)O)C(=O)O [GSH-C4, n-butanoyl γ-glutamylcysteinylglycine]
toxic effects in uninfected Vero cells (uninfected Vero cells): does not induce any toxic effects | activity against the strain TK− compared with the wild type strain (HSV-1 TK−): less active | HSV-1 TK− titer (HSV-1 TK−; 5 mM, 24 h): 2.59 × 10^5 pfu/ml | HSV-1 TK− titer (HSV-1 TK−; 5 mM, 48 h): 2.42 × 10^6 pfu/ml | HSV-1 TK− titer (HSV-1 TK−; 5 mM, 72 h): 2.13 × 10^6 pfu/ml | HSV-1 TK− titer (HSV-1 TK−; 7.5 mM, 24 h): 1.59 × 10^5 pfu/ml | HSV-1 TK− titer (HSV-1 TK−; 7.5 mM, 48 h): 2.56 × 10^5 pfu/ml | HSV-1 TK− titer (HSV-1 TK−; 7.5 mM, 72 h): 4.33 × 10^5 pfu/ml | inhibition of virus titer (HSV-1 TK−; 7.5 mM, 72 h after infection): approximately 1 log | HSV-1 TK− titer (HSV-1 TK−; 10 mM, 24 h): 1.53 × 10^5 pfu/ml | HSV-1 TK− titer (HSV-1 TK−; 10 mM, 48 h): 2.6 × 10^5 pfu/ml | HSV-1 TK− titer (HSV-1 TK−; 10 mM, 72 h): 3.44 × 10^5 pfu/ml | glutathione S-transferase activity compared to that in the presence of GSH [1]: 3.5% | glutathione peroxydase activity compared to that in the presence of GSH [2]: 1.8% | entry speed into erythrocytes (erythrocytes (RBCs)): 4.33 nmol/min/ml RBCs | virus particles in the cellular supernatant (HSV-1; 10 mM, 48 h after infection): no virus particles were detected | inhibition of virus replication 72 h after infection (HSV-1; 72 h after infection): same inhibition | protection from cytopathic effects induced by the virus (HSV-1; HSV-1 infected Vero cells): protects the Vero cells from the cytopathic effects induced by the virus | inhibition at 7500 µM (HSV-1; Human alphaherpesvirus 1, Vero, 48 h, read-out: inhibition of viral replication compared to the control): 60% | virus in the supernatant of treated cells (Sendai virus; 7.5 mM): no viruses were found | inhibition at 5000 µM (Sendai virus; 24 h p.i.): 88% | inhibition at 5000 µM (Sendai virus; 48 h p.i.): 93% | pEC50 (Sendai virus): 2.44 | toxicity for the cells, microscopic examination of the monolayers ([3]; 7.5 mM, MDCK monolayers of the Sendai experiment): without being toxic for the cells | toxic effect or change in cell morphology [3]: do not induce any toxic effect or change in cell morphology

CCCCCCCC(=O)NC(CCC(=O)NC(CS)C(=O)NCC(=O)O)C(=O)O (stereo not drawn) [GSH-C8]
toxic effect or change in cell morphology [3]: marked toxic effects
